Consider 2 compounds from patent publication US20240360135A1, “IMIDAZO[1,2-B]PYRIDAZINYL COMPOUNDS AND USES THEREOF” (Sumitomo Pharma Oncology, Inc., priority 2021, published 2024).

Each structure is given as a SMILES string. pEC50: −log10 of the molar value. Like-named read-outs stand apart in the source and are kept apart here.

Experiment [1] relates to A549 cells. The experiment can be described thus: Wound healing assay in A549 cells with TGF-β. The settings on record: for IC50: Homo sapiens, wound healing, A549, 5 ng/ml TGF-β; for migration (wound closure): after 72 hours, vs vehicle control with TGF-β. It counts as cell-based. The source says: Overview. Epithelial to mesenchymal transition (EMT) is used to describe epithelial cells losing their cell to cell adhesion and polarity while gaining migratory and invasive properties. The process of EMT is required for normal embryonic development and wound healing, but has also been implicated in fibrosis. In humans, TGF-β signaling is the main driver of EMT, and inhibiting this pathway may be beneficial in various diseases such as fibrosis. A wound healing assay was used to study cell migration and cell-cell interaction, and probe the EMT properties of lung epithelial cells (A549) in presence of Compound 2 or Compound 4.
Procedure. A549 cells (ATCC, CCL-185) were seeded into the ImageLock plate (Essen Bioscience) at 2×10^4 cells/well in 100 μL of complete growth media. Cells were incubated overnight at 37° C., 5% CO2. The next day, cells were washed with 1×PBS and Compound 2, Compound 4, DMSO control (±TGF-β) or galunisertib (TGF-β inhibitor used as positive control) was added to the cells in a serum-free F12K media (0.2% DMSO final, 10 μM starting concentration, 3-fold dilution, 8-doses) in presence of 5 ng/ml TGF-β. Cells were incubated for 48 hours (until they reached confluency) at 37° C., 5% CO2. Wounds were simultaneously created using a WoundMaker™ (Essen Bioscience). Debris and non-attached cells were removed by gently washing once with F12K.
Test compound or control compound and TGF-β were added to the cells in F12K+10% FBS as previously described. The ImageLock plate was put into IncuCyteS3 instrument installed inside a 5% CO2 incubator. The plate was allowed to equilibrate in the IncuCyteS3 instrument for 15 minutes prior to scheduling the first scan and data recording. The plate was incubated for 72 hours at 37° C., and wound closure was recorded in real time with the IncuCyte S3 imaging system. Percentage of relative wound density was quantitatively calculated by the IncuCyte software.

Experiment [2] deals with Caspase 3/7. The experiment in a line: Apoptosis assay (Caspase 3/7) in A549 cells. The settings on record: Homo sapiens, 24 hours, read-out: EC50, Caspase 3/7 activation. The format is cell-based. The source says: Overview. PIM1 is a kinase, and has many downstream targets including Bad (BCL2 associated agonist of cell death), a member of the BCL-2 family. BCL-2 family members are regulators of the programmed cell death pathways. Proapoptotic activity of Bad is regulated through its phosphorylation. Dephosphorylated Bad forms a heterodimer with Bcl-2 and Bcl-xL, inactivating them and thus allowing Bax/Bak-triggered apoptosis. Bad phosphorylation is thus anti-apoptotic, and Bad dephosphorylation is pro-apoptotic. PIM inhibition is expected to result in a decrease of phosphorylated Bad, and an increase in apoptosis.
Procedure. Three thousand five hundred A549 cells (ATCC, CCL-185) were added per well of a 384-well plate in a total volume of twenty-five microliters and cultured in RPMI medium (no phenol red)+plus ten percent fetal calf serum. The next day, DMSO or test compound was added (90 nanoliters of test compound/DMSO per well) at 7 different concentrations starting at 10 micromolar (3.3-fold dilution). After 24 hours at 37° C. with 5% CO2, apoptosis was measured by using the Caspase 3/7 assay system (Promega, G8090). […] The cells were then incubated at room temperature for 30 minutes and luminescence was measured for each sample using a plate reading luminometer (Envision, PerkinElmer).

The subject of experiment [3] is IL-23-induced hyperplasia. The experiment can be described thus: IL-23 induced hyperplasia mouse model (psoriasis study). The format is in vivo, C57BL/6J mice. The settings on record: for IL-17A production in ear tissue / IL-22 synthesis in ear tissue: day four; for thickness of the ear epidermal tissue: vs rmIL-23/vehicle; for gross ear thickness: caliper, vs rmIL-23/vehicle control group, BID dosing. The source says: The IL-23-induced hyperplasia model involves the injection of IL-23 into the ear of mice, and is dependent on IL-22 for the development of dermal inflammation and acanthosis. This model is commonly used to investigate pathways involved in psoriasis as well as potential therapies. To test the ability of Compounds 2 and 4 to reduce psoriasis in vivo, an IL-23 induced hyperplasia mouse model was utilized, and analyses of end-points, such as IL-17A and IL-22 levels, and histological measure of epidermal thickness of the ear tissue, were performed. Procedure. Female C57BL/6J mice between 9 to 13 weeks old (purchased from Taconic Biosciences) were weighed on the day prior to study start to establish a baseline. All treatment arms contained ten animals. All animals, except the sham/vehicle group received 0.4 μg of recombinant mouse IL-23 (rmIL-23) in a volume of 20 μL intradermally into one ear. Mice in group 1 (sham/vehicle) received 20 μL PBS. A total of 4 injections per ear was performed while the second ear was not injected nor analyzed. All drugs were prepared in 0.5 percent methylcellulose and 2 percent Tween 80. Starting on day zero of the study (0.5 to 4 hours before rmIL-23 injection), two doses of test compound (100 or 150 milligrams per kilogram of Compound 4, or 50 or 75 milligrams per kilogram of Compound 2) were given. All dosing was at the same time (+/−1 hour) each day with no less than 10 hours and no more than 14 hours between doses. On days zero (before rmIL-23 injection), three, and four (approximately 24 hours after the final hyperplasia induction injection), thickness of ears was measured using a caliper. Measurements were performed blind, by a person unaware of group or previous measurements. On day four, approximately 24 hours after the final hyperplasia induction injection, all mice were euthanized, and treated ears collected and weighed. Half of each ear was weighed and frozen for cytokine analysis (IL-17A and IL-22 concentration was measured using the Luminex technology by ELISA). The other half of each ear were fixed in 10 percent buffered formalin following H&E staining for histological analysis.

Where [4] appears, read: 100 milligrams per kilogram twice a day.
The mark [5] stands for this setting: 150 milligrams per kilogram twice a day.
Where [6] appears, read: 75 milligrams per kilogram twice a day.

For `CC(C)(O)C12CCC(Nc3ccc4ncc(-c5cc(C6CC6)[nH]n5)n4n3)(CC1)CC2` [Compound 4, 2-(4-((3-(5-cyclopropyl-1H-pyrazol-3-yl)imidazo[1,2-b]pyridazin-6-yl)amino)bicyclo[2.2.2]octan-1-yl)propan-2-ol], in experiment [1] (24 h, read-out: IC50 (μM) 24 h), the half-inhibitory concentration (IC50) (in general, the point on the concentration scale where inhibition reaches its midpoint) lay within 1 to 10 µM. For the same compound, the IC50 in experiment [1] (48 h, read-out: IC50 (μM) 48 h) is 1 to 10 µM. The half-maximal inhibitory concentration (IC50) in experiment [1] (72 h, read-out: IC50 (μM) 72 h) lay in the range of 1 to 10 µM. Also, the “migration (wound closure)” value in experiment [1] is on record as “strongly inhibited”. Besides, the pEC50 in experiment [2] is 4.70 to 6.00. In experiment [3] (setting [4]), the “IL-17A production in ear tissue” value was “strongly inhibited”, the “IL-22 synthesis in ear tissue” value was “reduced” and the “thickness of the ear epidermal tissue” value was “significantly reduced”. For the same compound, in experiment [3] (setting [5]), the “gross ear thickness, comparison between groups” value was “greater effect”; the “IL-17A production in ear tissue” value was “strongly inhibited”; the “IL-22 synthesis in ear tissue” value is reported as “reduced”; the “thickness of the ear epidermal tissue” value is “significantly reduced”. Further, in experiment [3], the gross ear thickness entry is given as “significantly reduced”.
On to `Cc1cc(-c2cnc3ccc(NC45CCC(C(C)(C)O)(CC4)CC5)nn23)n[nH]1` [Compound 2, 2-(4-((3-(5-methyl-1H-pyrazol-3-yl)imidazo[1,2-b]pyridazin-6-yl)amino)bicyclo[2.2.2]octan-1-yl)propan-2-ol], for which the half-inhibitory concentration (IC50) in experiment [1] (24 h, read-out: IC50 (μM) 24 h) fell in the range of 1 to 10 µM. The half-inhibitory concentration (IC50) in experiment [1] (48 h, read-out: IC50 (μM) 48 h) fell in the range of 1 to 10 µM. For the same compound, the IC50 in experiment [1] (72 h, read-out: IC50 (μM) 72 h) fell in the range of 1 to 10 µM. In addition, in experiment [1], the “migration (wound closure)” value is “strongly inhibited”. Further, in experiment [2], the pEC50 was 4.70 to 6.00. Besides, in experiment [3] (setting [6]), the “IL-17A production in ear tissue” value was “strongly inhibited”, the “IL-22 synthesis in ear tissue” value is “reduced” and the “thickness of the ear epidermal tissue” value is “significantly reduced”. For the same compound, in experiment [3], the gross ear thickness result is reported as “significantly reduced”.
